Assay results reported in patent US20250171465A1, “AKT INHIBITORS” (Stablix, Inc., priority 2023, published 2025).

The molecules below were run on KU1919.1 (assay: Cell Titer Glo (CTG) proliferation assay, KU1919). Details: Homo sapiens, KU-19-19; KU1919.1 cells, 72.0 hrs.; read-out: AVE CTG Proliferation KU1919.1 72.0 hrs.
Assay type: cell-based
Experimental: Seed cells in 40 μL of cell culture media into each well of 384-well cell culture plate, spin them at room temperature at 1,000 RPM for 1 minute and then transfer the plates into 37° C. 5% CO2 incubator overnight. Next day, treat cells with 40 nL of diluted compound and return to incubator. After compound treatment for 3 days, Add 30 μL of CellTiter-Glo reagent (Promega) into each well to be detected. Then place the plates at room temperature for 30 min followed by reading on EnVision. Inhibition activity calculated as % DMSO=100×(LumSample-Lum low control)/(Lum high control-Lum low control) where high control is from cells treated with 0.1% DMSO and Low control obtained from PBS only. Use XLFit (equation 201) to calculate IC50 (A+ ((B−A)/(1[…]((x/C)^D)))) where A: Bottom, B: Top, C: IC50, D: Slope.

| SMILES | IC50 [µM] |
| --- | --- |
| C[C@@H]1C[C@@H](O)c2ncnc(N3CCN(C(=O)[C@H](CN4CCC(OC5CCN(C(=O)[C@H](NC(=O)OC(C)(C)C)C6CCCCC6)CC5)CC4)c4ccc(Cl)cc4)CC3)c21 [Compound I-276] | 1 to 5 |
| NC1(C(=O)N[C@@H](CCNC(=O)[C@H](NC(=O)C2CC2)C2CCCCC2)c2ccc(Cl)cc2)CCN(c2ncnc3[nH]ccc23)CC1 [Compound I-237] | 5 to 10 |
| C[C@@H]1C[C@@H](O)c2ncnc(N3CCN(C(=O)[C@H](CNCCNC(=O)CN4CCC(OC5CCN(C(=O)[C@H](NC(=O)c6cccc(C7CCCN(C(=O)C8CC8)C7)c6F)C6CCCCC6)CC5)CC4)c4ccc(Cl)cc4)CC3)c21 (some centres unmarked) [Compound I-264] | 1 to 5 |
| CC(C)(C)OC(=O)N[C@@H](C(=O)N1CCN(CC23CCC(C(=O)N4CCN(CC[C@H](NC(=O)C5(N)CCN(c6ncnc7[nH]ccc67)CC5)c5ccc(Cl)cc5)CC4)(CC2)CO3)CC1)C1CCCCC1 [Compound I-308] | 1 to 5 |
| NC1(C(=O)N[C@@H](CCNS(=O)(=O)CCCCNC(=O)[C@H](NC(=O)c2cccc(C3CN(C(=O)CNCc4ccc(F)cc4F)C3)c2)C2CCCCC2)c2ccc(Cl)cc2)CCN(c2ncnc3[nH]ccc23)CC1 [Compound I-238] | > 10 |
| NC1(C(=O)N[C@@H](CCN2CCC(OC3CCN(C(=O)[C@H](NC(=O)c4cccc(C5CC5)c4F)C4CCCCC4)CC3)CC2)c2ccc(Cl)cc2)CCN(c2ncnc3[nH]ccc23)CC1 [Compound I-260] | 1 to 5 |
| CCc1cccc(-c2cc(F)c(C(=O)N3CCC(CN4CCN(CC[C@H](NC(=O)C5(N)CCN(c6ncnc7[nH]ccc67)CC5)c5ccc(Cl)cc5)CC4)CC3)c(F)c2)c1 [Compound I-263] | 1 to 5 |
| NC1(C(=O)N[C@@H](CCOCCN2CCC(OC3CCN(C(=O)[C@H](NC(=O)c4cccc(C5CCCN(C(=O)CNC6CC6)C5)c4)C4CCCCC4)CC3)CC2)c2ccc(Cl)cc2)CCN(c2ncnc3[nH]ccc23)CC1 (some centres unmarked) [Compound I-295] | 1 to 5 |
| NC1(C(=O)N[C@@H](CCNS(=O)(=O)CCCCNC(=O)[C@H](NC(=O)c2cccc(C3CCCN(C(=O)C4CC4)C3)c2)C2CCCCC2)c2ccc(Cl)cc2)CCN(c2ncnc3[nH]ccc23)CC1 (some centres unmarked) [Compound I-234] | > 10 |
| NC1(C(=O)N[C@@H](CCOCCCCCNC(=O)[C@H](NC(=O)c2cccc(C3CCCN(C(=O)CNC4CC4)C3)c2)C2CCCCC2)c2ccc(Cl)cc2)CCN(c2ncnc3[nH]ccc23)CC1 (some centres unmarked) [Compound I-298] | 1 to 5 |
| C[C@@H]1C[C@@H](O)c2ncnc(N3CCN(C(=O)[C@H](CCN4CCC(CN5CCN(C(=O)[C@H](NC(=O)c6cccc(C7CCCN(C(=O)CNCc8ccc(F)cc8F)C7)c6)C6CCCCC6)CC5)CC4)c4ccc(Cl)cc4)CC3)c21 (some centres unmarked) [Compound I-274] | 0.5 to 1 |
| NC1(C(=O)N[C@@H](CCN2CCC(OC3CCN(C(=O)[C@H](NC(=O)c4cccc(C5CN(C(=O)C6CC6)C5)c4)C4CCCCC4)CC3)CC2)c2ccc(Cl)cc2)CCN(c2ncnc3[nH]ccc23)CC1 [Compound I-243] | 1 to 5 |
| NC1(C(=O)N[C@@H](CCN2CCC(OC3CCN(C(=O)c4cccc(C5CCCN(C(=O)CNCc6ccc(F)cc6F)C5)c4F)CC3)CC2)c2ccc(Cl)cc2)CCN(c2ncnc3[nH]ccc23)CC1 (some centres unmarked) [Compound I-289] | 1 to 5 |
| C[C@@H]1C[C@@H](O)c2ncnc(N3CCN(C(=O)[C@H](CN4CCC(OC5CCN(C(=O)[C@H](NC(=O)c6cccc(C7CCCN(C(=O)C89CC(C8)C9)C7)c6F)C6CCCCC6)CC5)CC4)c4ccc(Cl)cc4)CC3)c21 (some centres unmarked) [Compound I-292] | 1 to 5 |
| CCc1cccc(-c2cc(F)c(C(=O)N3CCC(OC4CCN(CC[C@H](NC(=O)C5(N)CCN(c6ncnc7[nH]ccc67)CC5)c5ccc(Cl)cc5)CC4)CC3)c(F)c2)c1 [Compound I-280] | 1 to 5 |
| NC1(C(=O)N[C@@H](CCOCCCCCNC(=O)[C@H](NC(=O)c2cccc(C3CCCN(C(=O)C45CC(C4)C5)C3)c2)C2CCCCC2)c2ccc(Cl)cc2)CCN(c2ncnc3[nH]ccc23)CC1 (some centres unmarked) [Compound I-296] | > 10 |
| NC1(C(=O)N[C@@H](CCN2CCC(OC3CCN(C(=O)[C@H](NC(=O)c4cccc(C5CN(C(=O)CNC6CC6)C5)c4)C4CCCCC4)CC3)CC2)c2ccc(Cl)cc2)CCN(c2ncnc3[nH]ccc23)CC1 [Compound I-244] | 1 to 5 |
| C[C@@H]1C[C@@H](O)c2ncnc(N3CCN(C(=O)[C@H](CCN4CCC(CN5CCN(C(=O)[C@H](NC(=O)c6cccc(C7CCCN(C(=O)CNC8CC8)C7)c6)C6CCCCC6)CC5)CC4)c4ccc(Cl)cc4)CC3)c21 (some centres unmarked) [Compound I-272] | 1 to 5 |
| NC1(C(=O)N[C@@H](CCN2CCC(OC3CCN(C(=O)[C@H](NC(=O)c4cccc(C5CCCN(C(=O)CNCc6ccc(F)cc6F)C5)c4)C4CCCCC4)CC3)CC2)c2ccc(Cl)cc2)CCN(c2ncnc3[nH]ccc23)CC1 (some centres unmarked) [Compound I-251] | 0.5 to 1 |

| SMILES | IC50 [µM] |
| --- | --- |
| CC1(C(=O)N2CCCC(c3cccc(C(=O)N[C@@H](C(=O)N4CCC(OC5CCN(CCOCC[C@H](NC(=O)C6(N)CCN(c7ncnc8[nH]ccc78)CC6)c6ccc(Cl)cc6)CC5)CC4)C4CCCCC4)c3)C2)CC1 (some centres unmarked) [Compound I-294] | 1 to 5 |
| NC1(C(=O)N[C@@H](CCN2CCN(C(=O)CN3CCC(OC4CCN(C(=O)[C@H](NC(=O)c5cccc(C6CC6)c5F)C5CCCCC5)CC4)CC3)CC2)c2ccc(Cl)cc2)CCN(c2ncnc3[nH]ccc23)CC1 [Compound I-270] | 1 to 5 |
| NC1(C(=O)N[C@@H](CCOCCN2CCC(OC3CCN(C(=O)[C@H](NC(=O)c4cccc(C5CCCN(C(=O)CNCc6ccc(F)cc6F)C5)c4)C4CCCCC4)CC3)CC2)c2ccc(Cl)cc2)CCN(c2ncnc3[nH]ccc23)CC1 (some centres unmarked) [Compound I-236] | 0.5 to 1 |
| NC1(C(=O)N[C@@H](CCN2CCC(OC3CCN(C(=O)[C@H](NC(=O)c4cccc(C5CCN(C(=O)C6CC6)CC5)c4F)C4CCCCC4)CC3)CC2)c2ccc(Cl)cc2)CCN(c2ncnc3[nH]ccc23)CC1 [Compound I-288] | 1 to 5 |
| C[C@@H]1C[C@@H](O)c2ncnc(N3CCN(C(=O)[C@H](CN4CCC(OC5CCN(C(=O)[C@H](NC(=O)c6cccc(C7CCCN(C(=O)C8(C)CC8)C7)c6F)C6CCCCC6)CC5)CC4)c4ccc(Cl)cc4)CC3)c21 (some centres unmarked) [Compound I-291] | 1 to 5 |
| C=CC(=O)N1CCN(c2ccc(CCC(=O)NCCOCCNCC[C@H](NC(=O)C3(N)CCN(c4ncnc5[nH]ccc45)CC3)c3ccc(Cl)cc3)o2)C(=O)C1 [Compound I-287] | > 10 |
| C[C@@H]1C[C@@H](O)c2ncnc(N3CCN(C(=O)[C@H](CNCCNC(=O)CN4CCC(OC5CCN(C(=O)OC(C)(C)C)CC5)CC4)c4ccc(Cl)cc4)CC3)c21 [Compound I-314] | 1 to 5 |
| NC1(C(=O)N[C@@H](CCNS(=O)(=O)CCCCNC(=O)[C@H](NC(=O)c2cccc(C3CCCN(C(=O)CNCc4ccc(F)cc4F)C3)c2)C2CCCCC2)c2ccc(Cl)cc2)CCN(c2ncnc3[nH]ccc23)CC1 (some centres unmarked) [Compound I-239] | > 10 |
| NC1(C(=O)N[C@@H](CCN2CCN(C(=O)C34CCC(CN5CCN(C(=O)[C@H](NC(=O)c6cccc(C7CCCN(C(=O)C8CC8)C7)c6)C6CCCCC6)CC5)(CC3)OC4)CC2)c2ccc(Cl)cc2)CCN(c2ncnc3[nH]ccc23)CC1 (some centres unmarked) [Compound I-232] | > 10 |
| NC1(C(=O)N[C@@H](CCN2CCC(OC3CCN(C(=O)c4cccc(C5CCCN(C(=O)C6CC6)C5)c4F)CC3)CC2)c2ccc(Cl)cc2)CCN(c2ncnc3[nH]ccc23)CC1 (some centres unmarked) [Compound I-290] | 1 to 5 |
| NC1(C(=O)N[C@@H](CCNS(=O)(=O)CCCCNC(=O)[C@H](NC(=O)c2cccc(C3CN(C(=O)C4CC4)C3)c2)C2CCCCC2)c2ccc(Cl)cc2)CCN(c2ncnc3[nH]ccc23)CC1 [Compound I-228] | > 10 |
| NC1(C(=O)N[C@@H](CCN2CCN(C(=O)CN3CCC(CN4CCN(C(=O)c5cccc(C6CCCN(C(=O)C7CC7)C6)c5)CC4)CC3)CC2)c2ccc(Cl)cc2)CCN(c2ncnc3[nH]ccc23)CC1 (some centres unmarked) [Compound I-233] | 5 to 10 |
| CC(C)(C)OC(=O)N[C@@H](C(=O)NCCCCS(=O)(=O)NCC[C@H](NC(=O)C1(N)CCN(c2ncnc3[nH]ccc23)CC1)c1ccc(Cl)cc1)C1CCCCC1 [Compound I-309] | 1 to 5 |
| NC1(C(=O)N[C@@H](CCN2CCC(OC3CCN(C(=O)[C@H](NC(=O)c4ccc(C5CCN(C(=O)C6CC6)CC5)cc4)C4CCCCC4)CC3)CC2)c2ccc(Cl)cc2)CCN(c2ncnc3[nH]ccc23)CC1 [Compound I-231] | 1 to 5 |
| NC1(C(=O)N[C@@H](CCN2CCN(C(=O)CN3CCC(CN4CCN(C(=O)[C@H](NC(=O)c5cccc(C6CCCN(C(=O)C7CC7)C6)c5)C5CCCCC5)CC4)CC3)CC2)c2ccc(Cl)cc2)CCN(c2ncnc3[nH]ccc23)CC1 (some centres unmarked) [Compound I-247] | 1 to 5 |
| C[C@@H]1C[C@@H](O)c2ncnc(N3CCN(C(=O)[C@@H](CCN4CCC(CN5CCN(C(=O)[C@H](NC(=O)c6cccc(C7CCCN(C(=O)C8CC8)C7)c6)C6CCCCC6)CC5)CC4)c4ccc(Cl)cc4)CC3)c21 (some centres unmarked) [Compound I-266] | 1 to 5 |
| NC1(C(=O)N[C@@H](CCN2CCC(OC3CCN(C(=O)[C@H](NC(=O)c4cc(C5CCCN(C(=O)C6CC6)C5)ccc4F)C4CCCCC4)CC3)CC2)c2ccc(Cl)cc2)CCN(c2ncnc3[nH]ccc23)CC1 (some centres unmarked) [Compound I-221] | 1 to 5 |
| NC1(C(=O)N[C@@H](CCN2CCC(OC3CCN(C(=O)[C@H](NC(=O)c4cccc(C5CN(C(=O)CNCc6ccc(F)cc6F)C5)c4)C4CCCCC4)CC3)CC2)c2ccc(Cl)cc2)CCN(c2ncnc3[nH]ccc23)CC1 [Compound I-245] | 0.5 to 1 |
| C[C@@H]1C[C@@H](O)c2ncnc(N3CCN(C(=O)[C@H](CCN4CCC(CN5CCN(C(=O)[C@H](NC(=O)c6cccc(C7CCCN(C(=O)C8CC8)C7)c6)C6CCCCC6)CC5)CC4)c4ccc(Cl)cc4)CC3)c21 (some centres unmarked) [Compound I-265] | 1 to 5 |
